Source: patent publication US9204653B2, “5-fluoro pyrimidine derivatives” (DOW AGROSCIENCES LLC, priority 2008, dated 2015)
Like-named read-outs stand apart in the source and are kept apart here.

Test system: Mycosphaerella graminicola; Anamorph: Septoria tritici; Bayer Code SEPTTR
Test: Leaf blotch of wheat, foliar fungicide treatment, one day protectant (1DP) or three day curative (3DC)
Type: in vivo, Septoria tritici on wheat plants (variety Yuma)
Conditions: Zymoseptoria tritici; for pest or weed control at 50 ppm / pest or weed control at 200 ppm: % disease control rating
[1] = 24 h, one day protectant (1DP), 25 ppm, percent disease control rating, read-out: SETTTR 1DP 25 ppm
[2] = 24 h, one day protectant (1DP), percent disease control rating, read-out: SEPTTR 1DP 100 ppm
[3] = 72 h, three day curative (3DC), 25 ppm, percent disease control rating, read-out: SEPTTR 3DC 25 ppm
[4] = 72 h, three day curative (3DC), percent disease control rating, read-out: SEPTTR 3DC 100 ppm
[5] = 24 h, one day protectant (1DP), 25 ppm, rating of percent disease control, read-out: SETTTR 1DP 25 ppm
[6] = 24 h, one day protectant (1DP), rating of percent disease control, read-out: SEPTTR 1DP 100 ppm
[7] = 72 h, three day curative (3DC), 25 ppm, rating of percent disease control, read-out: SEPTTR 3DC 25 ppm
[8] = 72 h, three day curative (3DC), rating of percent disease control, read-out: SEPTTR 3DC 100 ppm
[9] = 24 h, one day protectant (1DP), 25 ppm (first 1DP column), percent control rating, read-out: SETTTR 1DP 25 ppm
[10] = 24 h, one day protectant (1DP), 25 ppm as printed (second 1DP column), percent control rating, read-out: SETTTR 1DP 25 ppm
[11] = 72 h, three day curative (3DC), 25 ppm, percent control rating, read-out: SEPTTR 3DC 25 ppm
[12] = 72 h, three day curative (3DC), percent control rating, read-out: SEPTTR 3DC 100 ppm

Fc1cnc(OCc2ccccc2)nc1N/N=C/C1CC1 [Compound 105] showed a pest or weed control at 25 ppm [1] of 0 to 25%, a pest or weed control at 100 ppm [2] of 0 to 25% and a pest or weed control at 25 ppm [3] of 0 to 25%. For the same compound, the pest or weed control at 100 ppm [4] was 0 to 25%.

With Fc1cnc(OC2CCCCC2)nc1NCc1ccc2c(c1)OCO2 [Compound 841] the pest or weed control at 50 ppm (24 h, one day protectant) was 51 to 75% and the pest or weed control at 200 ppm (24 h, one day protectant) was 76 to 100%.

COc1cccc(COc2ncc(F)c(N/N=C/c3cccs3)n2)c1 [Compound 45, (E)-5-Fluoro-2-(3-methoxybenzyloxy)-4-(2-(thiophen-2-ylmethylene)-hydrazinyl)pyrimidine] gave a pest or weed control at 25 ppm [1] of 51 to 75%, a pest or weed control at 100 ppm [2] of 76 to 100% and a pest or weed control at 25 ppm [3] of 26 to 50%. The pest or weed control at 100 ppm [4] was 26 to 50%.

For Cc1ccc(COc2ncc(F)c(N(N)C3CCCCC3)n2)cc1 [Compound 755], the pest or weed control at 25 ppm [5] was 26 to 50%, the pest or weed control at 100 ppm [6] was 26 to 50% and the pest or weed control at 25 ppm [7] was 0 to 25%. For the same compound, the pest or weed control at 100 ppm [8] was 0 to 25%.

Work on C/C(=N\Oc1ncc(F)c(N)n1)C(F)(F)F [Compound 1114] yielded a pest or weed control at 25 ppm [9] of 0 to 25%, a pest or weed control at 25 ppm [10] of 0 to 25% and a pest or weed control at 25 ppm [11] of 26 to 50%. It also gave a pest or weed control at 100 ppm [12] of 76 to 100%.

Compound O=C(Nc1ccccc1)Nc1nc(OCc2ccc(F)cc2)ncc1F [Compound 485] has a pest or weed control at 25 ppm [5] of 0 to 25%, a pest or weed control at 100 ppm [6] of 0 to 25% and a pest or weed control at 25 ppm [7] of 0 to 25%. It also gave a pest or weed control at 100 ppm [8] of 0 to 25%.

For O=C(Nc1nc(OCc2cccc(F)c2)ncc1F)OCc1ccccc1 [Compound 478], the pest or weed control at 25 ppm [5] was 51 to 75%, the pest or weed control at 100 ppm [6] was 76 to 100% and the pest or weed control at 25 ppm [7] was 76 to 100%. The pest or weed control at 100 ppm [8] was 76 to 100%.

For CC(=O)Nc1nc(OCc2cccc(F)c2)ncc1F [Compound 107], the pest or weed control at 25 ppm [1] was 76 to 100%, the pest or weed control at 100 ppm [2] was 76 to 100% and the pest or weed control at 25 ppm [3] was 76 to 100%. For the same compound, the pest or weed control at 100 ppm [4] was 76 to 100%.

CC(C)=NOc1ncc(F)c(N)n1 [Compound 997] showed a pest or weed control at 25 ppm [9] of 76 to 100%, a pest or weed control at 25 ppm [10] of 76 to 100% and a pest or weed control at 25 ppm [11] of 76 to 100%. The pest or weed control at 100 ppm [12] was 76 to 100%.

Fc1cnc(OCc2ccco2)nc1N1CCOCC1 [Compound 944] showed a pest or weed control at 50 ppm (24 h, one day protectant) of 0 to 25% and a pest or weed control at 200 ppm (24 h, one day protectant) of 0 to 25%.

Compound O=CNc1nc(OCc2ccccc2)ncc1F [Compound 961, N-(2-(Benzyloxy)-5-fluoropyrimidin-4-yl)formamide] has a pest or weed control at 25 ppm [9] of 76 to 100%, a pest or weed control at 25 ppm [10] of 76 to 100% and a pest or weed control at 25 ppm [11] of 76 to 100%. For the same compound, the pest or weed control at 100 ppm [12] was 76 to 100%.

With Nc1nc(OCc2cc(F)c(F)c(F)c2)ncc1F [Compound 93] the pest or weed control at 25 ppm [1] was 76 to 100%, the pest or weed control at 100 ppm [2] was 76 to 100% and the pest or weed control at 25 ppm [3] was 76 to 100%. The pest or weed control at 100 ppm [4] was 76 to 100%.

CC[Si](CC)(CC)Nc1nc(OCc2cccc(C#N)c2)ncc1F [Compound 599] showed a pest or weed control at 25 ppm (24 h, one day protectant, 25 ppm, rating of percent disease control, read-out: SETTTR 1DP 25 ppm) of 51 to 75%, a pest or weed control at 100 ppm (24 h, one day protectant, rating of percent disease control, read-out: SEPTTR 1DP 100 ppm) of 76 to 100% and a pest or weed control at 25 ppm (72 h, three day curative, 25 ppm, rating of percent disease control, read-out: SEPTTR 3DC 25 ppm) of 76 to 100%. It also gave a pest or weed control at 100 ppm (72 h, three day curative, rating of percent disease control, read-out: SEPTTR 3DC 100 ppm) of 76 to 100%.

Compound Nc1nc(OCc2cccc3ccccc23)ncc1F [Compound 120] has a pest or weed control at 25 ppm [1] of 76 to 100%, a pest or weed control at 100 ppm [2] of 76 to 100% and a pest or weed control at 25 ppm [3] of 76 to 100%. For the same compound, the pest or weed control at 100 ppm [4] was 76 to 100%.

With Fc1cnc(OCc2ccc3c(c2)OCO3)nc1NCc1cccs1 [Compound 839] the pest or weed control at 200 ppm (24 h, one day protectant) was 76 to 100%.

Cn1ccc(COc2ncc(F)c(N)n2)n1 [Compound 55] showed a pest or weed control at 25 ppm [1] of 76 to 100%, a pest or weed control at 100 ppm [2] of 76 to 100% and a pest or weed control at 25 ppm [3] of 76 to 100%. For the same compound, the pest or weed control at 100 ppm [4] was 76 to 100%.

With Nc1nc(OCc2ccc(F)c(F)c2)ncc1F [Compound 210] the pest or weed control at 25 ppm [5] was 76 to 100%, the pest or weed control at 100 ppm [6] was 76 to 100% and the pest or weed control at 25 ppm [7] was 76 to 100%. It also gave a pest or weed control at 100 ppm [8] of 76 to 100%.

With CC(=O)Nc1nc(OCc2ccc(F)cc2)ncc1F [Compound 52] the pest or weed control at 25 ppm [1] was 76 to 100%, the pest or weed control at 100 ppm [2] was 76 to 100% and the pest or weed control at 25 ppm [3] was 51 to 75%. The pest or weed control at 100 ppm [4] was 51 to 75%.

Work on O=C(Nc1nc(OCc2ccc(F)cc2)ncc1F)c1ccccc1 [Compound 364] yielded a pest or weed control at 25 ppm [5] of 76 to 100%, a pest or weed control at 100 ppm [6] of 76 to 100% and a pest or weed control at 25 ppm [7] of 76 to 100%. It also gave a pest or weed control at 100 ppm [8] of 76 to 100%.

Work on COc1ccccc1S(=O)(=O)Nc1nc(O)ncc1F [Compound 1102] yielded a pest or weed control at 25 ppm [9] of 0 to 25%, a pest or weed control at 25 ppm [10] of 0 to 25% and a pest or weed control at 25 ppm [11] of 26 to 50%. It also gave a pest or weed control at 100 ppm [12] of 26 to 50%.
